Earlier results in patent US12571046B2, “Methods of detecting and treating multiple system atrophy” (THE TRANSLATIONAL GENOMICS RESEARCH INSTITUTE, priority 2020, dated 2026).

Experiments:
[1] = system: conditional QKI knock-out mouse model; conditions: conditional QKI-KO mouse; PPARβ and RXR agonists; literature ref [82]/[96]
[2] = biological target: α-synuclein (Homo sapiens, UniProt P37840); conditions: in vitro; interaction at N-terminus of α-synuclein; literature ref [65]

Row | Compound | effect on QKI deficiency-induced demyelination [1] | effect on α-synuclein fibrillization [2]
1 | C=C(c1ccc(C(=O)O)cc1)c1cc2c(cc1C)C(C)(C)CCC2(C)C [bexarotene] | alleviate QKI deficiency-induced demyelination in the mouse | –
2 | Vitamin K | – | delays α-synuclein fibrillization
3 | C[C@@H]1CN(c2ccc(OC(F)(F)F)cc2)C[C@H](C)N1S(=O)(=O)c1cccc2c1C[C@@H](C(=O)O)C2.Cc1ccc(S(=O)(=O)O)cc1 [KD3010] | alleviate QKI deficiency-induced demyelination in the mouse | –
